# Patent US20250099421A1 (priority 2023, published 2025)
# How the values were obtained:
# [1] = cited from earlier work
# [2] = tested on: rat monosodium iodoacetate model of knee osteoarthritis; settings: in vivo
Molecule,half-life in-vivo [1],weight bearing asymmetry at acute time points on Day 14 versus vehicle [2]
hyaluronic acid [HA],hours-days,
"C=C(C)[C@]12C[C@@H](C)[C@@]34O[C@](Cc5ccccc5)(O[C@@H]1[C@@H]3C=C(COC(=O)Cc1ccc(O)c(OC)c1)C[C@]1(O)C(=O)C(C)=C[C@@H]41)O2 [RTX, resiniferatoxin]",,increased weight bearing asymmetry
"COc1cc(CNC(=O)CCCC/C=C/C(C)C)ccc1O [CAP, capsaicin]",,increased weight bearing asymmetry
